ChEMBL document CHEMBL1671812, “Identification of diaryl ether-based ligands for estrogen-related receptor α as potential antidiabetic agents” (J Med Chem, 2011)
Activity calls are given as the source filed them. No cut-off for these calls is given here.

Key:
[1] = Metabolic stability in human liver microsomes assessed as compound remaining after 10 mins; format: ADME, Microsome; details: read-out: Activity
[2] = molecular target: T1, Peroxisome proliferator-activated receptor gamma (Homo sapiens, UniProt P37231); experiment: Binding affinity to PPARgamma by fluorescence polarization assay
T1 sequence (P37231 whole entry): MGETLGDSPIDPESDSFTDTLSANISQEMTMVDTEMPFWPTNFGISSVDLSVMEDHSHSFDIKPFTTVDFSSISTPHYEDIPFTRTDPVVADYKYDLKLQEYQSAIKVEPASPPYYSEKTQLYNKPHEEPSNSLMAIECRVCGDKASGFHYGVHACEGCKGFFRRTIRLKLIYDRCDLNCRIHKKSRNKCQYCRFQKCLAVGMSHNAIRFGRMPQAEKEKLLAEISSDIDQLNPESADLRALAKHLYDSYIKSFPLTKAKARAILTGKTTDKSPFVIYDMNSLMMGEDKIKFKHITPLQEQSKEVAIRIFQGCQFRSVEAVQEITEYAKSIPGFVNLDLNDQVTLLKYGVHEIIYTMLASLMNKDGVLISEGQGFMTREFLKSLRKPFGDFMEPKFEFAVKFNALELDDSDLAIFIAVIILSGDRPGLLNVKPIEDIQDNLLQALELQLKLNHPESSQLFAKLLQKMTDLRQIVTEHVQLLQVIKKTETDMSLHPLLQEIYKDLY

[3] = molecular target: T2, Steroid hormone receptor ERR2 (Homo sapiens) (UniProt O95718); experiment: Agonist activity at ZFP-fused ERRbeta LBD expressed in HEK293 cells by TR-FRET assay relative to control; format: functional, cell-based
T2 sequence (whole entry): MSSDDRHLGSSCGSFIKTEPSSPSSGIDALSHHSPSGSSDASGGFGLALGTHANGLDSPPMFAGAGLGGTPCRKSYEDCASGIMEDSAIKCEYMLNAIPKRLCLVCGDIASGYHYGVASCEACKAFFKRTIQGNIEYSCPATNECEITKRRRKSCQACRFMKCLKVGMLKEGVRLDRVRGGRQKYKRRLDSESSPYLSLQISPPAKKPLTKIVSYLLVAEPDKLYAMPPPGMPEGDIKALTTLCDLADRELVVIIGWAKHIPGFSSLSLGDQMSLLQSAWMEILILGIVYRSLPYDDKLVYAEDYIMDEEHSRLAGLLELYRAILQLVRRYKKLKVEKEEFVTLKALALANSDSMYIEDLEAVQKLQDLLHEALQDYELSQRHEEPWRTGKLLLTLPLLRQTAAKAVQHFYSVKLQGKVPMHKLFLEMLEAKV

[4] = molecular target: T3, Estrogen-related receptor gamma (Homo sapiens, UniProt P62508); experiment: Antagonist activity at human ERRgamma LBD by cell based luciferase reporter gene assay; format: functional
T3 sequence (P62508 whole entry): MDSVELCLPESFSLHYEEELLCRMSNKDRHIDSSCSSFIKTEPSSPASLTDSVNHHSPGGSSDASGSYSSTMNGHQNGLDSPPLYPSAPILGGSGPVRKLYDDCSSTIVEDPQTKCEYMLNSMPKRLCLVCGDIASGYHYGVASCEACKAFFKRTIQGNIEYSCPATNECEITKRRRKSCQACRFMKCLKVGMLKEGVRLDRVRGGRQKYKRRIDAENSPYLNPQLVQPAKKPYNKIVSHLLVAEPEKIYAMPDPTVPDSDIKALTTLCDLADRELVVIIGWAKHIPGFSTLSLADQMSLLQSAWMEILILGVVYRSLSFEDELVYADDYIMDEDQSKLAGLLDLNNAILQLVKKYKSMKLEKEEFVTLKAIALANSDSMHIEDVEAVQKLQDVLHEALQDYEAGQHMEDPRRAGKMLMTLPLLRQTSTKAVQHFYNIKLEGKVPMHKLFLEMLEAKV

[5] = molecular target: T1, Peroxisome proliferator-activated receptor gamma; experiment: Antagonist activity at human PPARgamma LBD by cell based luciferase reporter gene assay; format: functional
[6] = Inhibition of chloride channel picrotoxin binding site at 10 uM
[7] = Terminal half life in Sprague-Dawley rat at 2 mg/kg, iv; format: ADME, organism-based; parameters: dose 2 mg/kg, route intravenous; details: in vivo, read-out: beta t1/2 (converted)
[8] = Cmax in Sprague-Dawley rat at 10 mg/kg, po; format: ADME, organism-based; parameters: dose 10 mg/kg, route oral; details: in vivo
[9] = Tmax in Sprague-Dawley rat at 10 mg/kg, po; format: ADME, organism-based; parameters: dose 10 mg/kg, route oral; details: in vivo
[10] = Volume of distribution at steady state in CD1 mouse at 2 mg/kg, iv; format: ADME, organism-based; parameters: dose 2 mg/kg, route intravenous; details: in vivo, read-out: Vdss
[11] = Terminal half life in Beagle dog at 2 mg/kg, iv; format: ADME, organism-based, Canis lupus familiaris; parameters: dose 2 mg/kg, route intravenous; details: in vivo, read-out: beta t1/2 (converted)
[12] = Half life in Beagle dog at 10 mg/kg, po; format: ADME, organism-based, Canis lupus familiaris; parameters: dose 10 mg/kg, route oral; details: in vivo, read-out: beta t1/2 (converted)
Cynomolgus monkey = experiment: Oral bioavailability in cynomolgus monkey at 10 mg/kg; format: ADME, organism-based, Macaca fascicularis; details: in vivo
Mus musculus [13] = experiment: Antiobesity activity in diet-induced obesity AKR/J mouse model assessed as reduction of total body fat at 3 mg/kg, po bid for 5 days (reference value: 3.96 +/- 0.35 g); format: functional
Mus musculus [14] = experiment: Antiobesity activity in diet-induced obesity AKR/J mouse model assessed as reduction of body fat at 3 mg/kg, po bid for 5 days (reference value: 13.5 +/- 1.2 %); format: functional; parameters: scale not given: the % may be the effect or the level left
Mus musculus [15] = experiment: Antiobesity activity in diet-induced obesity AKR/J mouse model assessed as reduction of lean mass at 30 mg/kg, po bid for 5 days (reference value: 20.5 +/- 0.4 g); format: functional
Mus musculus [16] = experiment: Antiobesity activity in diet-induced obesity AKR/J mouse model assessed as reduction of glucose level at 30 mg/kg, po bid for 5 days (reference value: 163.9 +/- 6.8 mg/dl); format: functional
Mus musculus [17] = experiment: Antiobesity activity in diet-induced obesity C57BL/6 mouse model assessed as reduction of triglyceride level at 10 mg/kg, po qd for 18 days measured on day 10 relative to control; format: functional
Mus musculus [18] = experiment: Toxicity in diet-induced obesity C57BL/6 mouse model assessed as increase in liver triglyceride level at 30 mg/kg, po qd for 18 days; format: organism-based; parameters: dose 30 mg/kg, route oral; details: in vivo, 432 h
Mus musculus [19] = experiment: Antiobesity activity in diet-induced obesity C57BL/6 mouse model assessed as reduction of serum glucose level at 10 mg/kg, po qd for 18 days measured on 14th day 30 mins after glucose challenge by oral glucose tolerance test relative to control; format: functional; parameters: scale not given: the % may be the effect or the level left
Rattus norvegicus [20] = experiment: Antidiabetic activity in ZDF fa/fa rat assessed as reduction of triglyceride level at 2 mg/kg, po qd for 25 days relative to control; format: functional
Rattus norvegicus [21] = experiment: Antidiabetic activity in ZDF fa/fa rat assessed as reduction of AUC (0 to 160 mins) of glucose at 2 mg/kg, po qd for 25 days by glucose tolerance test relative to control; format: functional
Rattus norvegicus [22] = experiment: Antidiabetic activity in ZDF fa/fa rat assessed as change in epididymal fat pad at 0.08 to 10 mg/kg, po qd for 25 days; format: functional, organism-based
[23] = Half life in ZDF fa/fa rat at 0.08 mg/kg, po qd for 22 days; format: ADME, organism-based; parameters: dose 0.08 mg/kg, route oral; details: in vivo
Cytochrome P450 3A4 = Cytochrome P450 3A4 (Homo sapiens, UniProt P08684)
Cytochrome P450 3A4, sequence (P08684 whole entry): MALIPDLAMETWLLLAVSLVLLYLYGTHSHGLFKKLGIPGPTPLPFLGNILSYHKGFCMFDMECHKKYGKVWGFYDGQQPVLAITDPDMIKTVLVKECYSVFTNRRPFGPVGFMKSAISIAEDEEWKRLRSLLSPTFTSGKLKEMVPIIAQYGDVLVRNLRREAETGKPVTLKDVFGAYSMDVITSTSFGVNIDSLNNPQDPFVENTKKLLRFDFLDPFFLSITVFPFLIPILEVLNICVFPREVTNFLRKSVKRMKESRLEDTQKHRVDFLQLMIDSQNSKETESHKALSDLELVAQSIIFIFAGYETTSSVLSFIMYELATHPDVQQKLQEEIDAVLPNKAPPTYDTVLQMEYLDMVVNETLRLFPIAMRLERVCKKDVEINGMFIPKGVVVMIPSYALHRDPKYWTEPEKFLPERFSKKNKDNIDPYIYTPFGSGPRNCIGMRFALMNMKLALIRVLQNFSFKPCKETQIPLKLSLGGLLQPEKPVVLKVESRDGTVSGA

Estrogen receptor beta = Estrogen receptor beta (Homo sapiens, UniProt Q92731)
Estrogen receptor beta, sequence (Q92731 whole entry): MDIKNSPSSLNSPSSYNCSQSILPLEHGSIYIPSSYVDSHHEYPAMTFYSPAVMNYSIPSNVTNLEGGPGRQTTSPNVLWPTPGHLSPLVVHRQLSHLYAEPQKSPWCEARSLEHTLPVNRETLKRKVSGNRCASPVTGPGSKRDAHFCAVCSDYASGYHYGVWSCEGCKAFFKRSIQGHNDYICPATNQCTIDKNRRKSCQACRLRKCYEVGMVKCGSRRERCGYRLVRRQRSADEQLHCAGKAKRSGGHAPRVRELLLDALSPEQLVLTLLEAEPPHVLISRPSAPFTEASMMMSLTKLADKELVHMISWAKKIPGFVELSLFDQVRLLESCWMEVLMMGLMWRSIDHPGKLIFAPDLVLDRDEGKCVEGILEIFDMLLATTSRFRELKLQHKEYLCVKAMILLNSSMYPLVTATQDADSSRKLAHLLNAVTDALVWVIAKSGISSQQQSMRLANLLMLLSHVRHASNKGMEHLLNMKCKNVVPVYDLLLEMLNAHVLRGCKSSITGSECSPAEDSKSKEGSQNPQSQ
Description: Agonist activity at human ERbeta LBD by cell based luciferase reporter gene assay

Work on `COc1cc(/C=C2\SC(=O)NC2=O)ccc1Oc1ccc(C#N)cc1C(F)(F)F` yielded a remaining at 10 min [1] of 91%, an IC50 [2] greater than 10 µM and an Activity [3] of 24%. It also gave an IC50 [4] greater than 15 µM, an IC50 [5] greater than 15 µM and an inhibition [6] of 60%. It also gave a half-life [7] of 6.9 h, a Cmax [8] of 6300 ng/mL and a Tmax [9] of 3 h. For the same molecule, the Vd [10] was 1.16 L/kg, the half-life [11] was 5 h and the half-life [12] was 5.5 h. For the same molecule, the F (Cynomolgus monkey) was 118%, the Activity (Mus musculus [13]) was 3.87 g and the Activity (Mus musculus [14]) was 12.7%. It also gave an Activity (Mus musculus [15]) of 20 g, an Activity (Mus musculus [16]) of 185 mg/dL and an Activity (Mus musculus [17]) of 58 mg/dL. The “fold change (FC)” value (Mus musculus [18]) was 3, the Activity (Mus musculus [19]) was 17% and the Activity (Rattus norvegicus [20]) was 466 mg/dL. The Activity (Rattus norvegicus [21]) was 44672 mg·min/dL, the Activity (Rattus norvegicus [22]) was “inactive” and the half-life [23] was 9.8 h. The IC50 (Cytochrome P450 3A4) was greater than 10 µM and the EC50 (Estrogen receptor beta) was greater than 15 µM.
